From patent US20260083830A1, “BIODEGRADABLE POLYMERIC PARTICLES FOR DELIVERY OF POSITIVELY CHARGED THERAPEUTIC AGENTS” (REGENTS OF THE UNIVERSITY OF MICHIGAN, priority 2022, published 2026)

What was measured:
[1] = previous studies; cited from earlier work
[2] = Net charge of peptide at neutral pH; format: physicochemical; details: owing to 2 Arginine residues
EAE [3] = test: EAE murine model, intravenous versus subcutaneous administration of remote loaded nanoparticles (Example VIII); format: in vivo, C57BL/6J mice; details: 100 ug subcutaneous by the tail base; after 60 days
EAE [4] = test: EAE murine model, effects of remote loaded nanoparticles on Treg response, EAE scores (Example IX); format: in vivo, C57BL/6J mice; details: 10 ug subcutaneous by the tail base
Description: EAE was induced in a murine model as described in Example VIII. There were 3 treatment groups and one group that only received phosphate-buffered saline (PBS). For the treatment groups, 10 ug of self-antigen in 1 mL PBS was aliquoted from the MOG 38-50 loaded PLGA nanoparticles batch based on loading % determined by UPLC. The first treatment group received remote loaded nanoparticles injected subcutaneously by the tail base. The second treatment group received remote loaded nanoparticles injected intravenously in the tail. The third treatment group received 10 ug of free MOG 38-50 peptide injected subcutaneously by the tail base. EAE was assessed daily using the 0 to 5 clinical score scale described in Example VII.

| Compound | charge at neutral pH [1] | charge [2] | EAE clinical score (EAE [3]) | EAE score (EAE [4]; after day 8) | EAE score (EAE [4]; day 8) |
| --- | --- | --- | --- | --- | --- |
| CCNC(=O)[C@@H]1CCCN1C(=O)[C@H](CCCNC(=N)N)NC(=O)[C@H](CC(C)C)NC(=O)[C@@H](CC(C)C)NC(=O)[C@H](Cc1ccc(O)cc1)NC(=O)[C@H](CO)NC(=O)[C@H](Cc1c[nH]c2ccccc12)NC(=O)[C@H](Cc1c[nH]cn1)NC(=O)[C@@H]1CCC(=O)N1 [leuprolide] | ~+1 | – | – | – | – |
| C[C@@H](O)[C@@H]1NC(=O)[C@H](CCCCN)NC(=O)[C@@H](Cc2c[nH]c3ccccc23)NC(=O)[C@H](Cc2ccccc2)NC(=O)[C@@H](NC(=O)[C@H](N)Cc2ccccc2)CSSC[C@@H](C(=O)N[C@H](CO)[C@@H](C)O)NC1=O [octreotide] | ~+1.7 | – | – | – | – |
| MOG 38-50 (GWYRSPFSRVVHL) [free MOG 38-50 peptide] | – | > +1 | 3.5 | ~3.0 | ~2.5 |
